The source of these data is patent US11964978B2, “Modulators of STING (stimulator of interferon genes)” (PFIZER INC., priority 2021, dated 2024).

Molecules are shown by their SMILES. Some results are limits rather than exact numbers.

In one experiment the target is R232-STING (Homo sapiens (Human), UniProt Q86WV6, H232R). Particulars: read-out: R232-STING SPA-IC50 Ki; STING residues 155-341, 100 nM 3H-cGAMP; KI from IC50 with Cheng-Prusoff equation.
Experiment [1] relates to phosphorylation of IRF3 in THP-1 cells (STING activation). Nature of the experiment: Phosphorylation of IRF3: THP-1 cell ELISA. As to conditions: Homo sapiens, 3 hours incubation, read-out: THP-1 CELL P-IRF3 EC50. The format is cell-based. How it is done: Phosphorylation of IRF3: THP-1 cell ELISA
STING activation results in recruitment of TBK1 and phosphorylation of IRF3 transcription factor before induction of type I interferons. THP-1 cells (InvivoGen) were grown in RPMI media plus 2 mM L-glutamine, 10% fetal bovine serum, and 0.5% Pen-Strep. 10^4 cells were seeded in 96-well plates and incubated overnight […]. Compounds serial diluted compounds in media (final 0.5% DMSO) were added to the cells and incubated for an additional 3 hours. After incubation, the plates were centrifuged at 2000 rpm for 5 min. The cells were then lysed in 100 μl RIPA buffer and vortexed for 30 minutes at room temperature. 25 μl of lysate was then transferred to clear polystyrene High Bind plates that had been previously coated with mouse anti-human IRF-3 capture antibody (BD Pharmigen), and allowed to incubate at 4° C. for 16 hours. The plates were then washed and incubated with rabbit anti-phospho-IRF3 detection antibody (Cell Signaling Technologies) for 1.5 hours at room temperature. Finally, an HRP-linked secondary antibody (Cell Signaling Technologies) was added for 30 min before the Glo Substrate Reagent (R&D Systems) was used generate the luminescent signal. The signal was measured using a Perkin-Elmer Envision microplate reader. Data were normalized to “% effect” with a positive control STING agonist that was known to maximize the phosphorylated IRF3 signal and the negative control was DMSO.

The subject of experiment [2] is THP-1 Lucia ISG cells (IRF-inducible Lucia luciferase reporter). The experiment in a line: Interferon-β induction: THP-1 ISG reporter cell line. The format is cell-based. As to conditions: THP1-Lucia ISG, 24 hours incubation, read-out: THP-1 Lucia ISG Cells IFN-β EC50. The method, then: Interferon-β Induction: THP-1 ISG Reporter Cell Line
THP-1 Lucia™ ISG cells (InvivoGen) express the secreted luciferase “Lucia” reporter gene under the control of an IRF-inducible composite promotor comprised of five interferon response elements. THP-1 Lucia™ ISG cells were grown in RPMI media plus 2 mM L-glutamine, 10% fetal bovine serum, and 0.5% Pen-Strep. Hygromycin B and Zeocin were present to maintain stable transfection. 10^4 cells were seeded in 96-well plates and incubated overnight 37° C., 5% CO2. 50 μL of serial diluted compounds in media (final 0.5% DMSO) was and incubated for an additional 24 hours. After incubation, the plates were centrifuged at 2000 rpm for 10 min. 50 μl of cell culture supernatant of each well was transferred to a white, opaque 96-well plate. One pouch of QUANTI-Luc™ (InvivoGen) powder was prepared in 25 mL of endotoxin-free water and 100 μL of prepared warm QUANTI-Luc solution were added to each well containing the supernatant. The luminescence signal was measured using a Perkin-Elmer Envision microplate reader. Data were normalized to “% effect” with a positive control STING agonist that was known to maximize the luciferase signal and the negative control DMSO.

Chain of R232-STING (Q86WV6 155-341 H232R): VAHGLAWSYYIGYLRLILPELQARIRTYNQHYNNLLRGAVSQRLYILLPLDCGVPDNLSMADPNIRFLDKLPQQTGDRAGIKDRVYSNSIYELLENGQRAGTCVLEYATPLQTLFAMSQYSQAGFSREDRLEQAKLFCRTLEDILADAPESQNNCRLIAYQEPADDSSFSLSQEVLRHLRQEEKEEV

Regarding `CCCn1nc(C)c(O)c1-c1cn(C)c(-c2nc(C(N)=O)cc3c2cnn3C)n1` [AIF11, 4-[4-(4-hydroxy-3-methyl-1-propyl-1H-pyrazol-5-yl)-1-methyl-1H-imidazol-2-yl]-1-methyl-1H-pyrazolo[4,3-c]pyridine-6-carboxamide], the Ki on R232-STING was found to be 0.3 nM. Besides, the values for the EC50 in experiment [1] and in experiment [2] were 10 nM and < 10 nM, respectively.
Turning to `CCn1nc(C)c(F)c1-c1cn(C)c(-c2nc(C(N)=O)cc3c2cnn3C)n1` [AIF12, 4-[4-(1-ethyl-4-fluoro-3-methyl-1H-pyrazol-5-yl)-1-methyl-1H-imidazol-2-yl]-1-methyl-1H-pyrazolo[4,3-c]pyridine-6-carboxamide], the Ki on R232-STING was found to be 2.4 nM. The EC50 in experiment [1] amounted to 310 nM; in experiment [2] it was 370 nM.
Take `CCn1cc(-c2c(O)c(C)nn2CC)nc1-c1nc(C(N)=O)cc2c1cnn2C` [AIF13, 4-[1-ethyl-4-(1-ethyl-4-hydroxy-3-methyl-1H-pyrazol-5-yl)-1H-imidazol-2-yl]-1-methyl-1H-pyrazolo[4,3-c]pyridine-6-carboxamide]: on R232-STING, the Ki amounted to 2.9 nM. Further, the EC50 in experiment [1] is 250 nM; in experiment [2], 160 nM.
Turning to `Cc1cc(-c2cn(C)c(-c3nc(C(N)=O)cc4c3cnn4C)n2)n(CCCC(F)F)n1` [AIF14, 4-{4-[1-(4,4-difluorobutyl)-3-methyl-1H-pyrazol-5-yl]-1-methyl-1H-imidazol-2-yl}-1-methyl-1H-pyrazolo[4,3-c]pyridine-6-carboxamide], the Ki at R232-STING was determined as 28.2 nM. Moreover, the results for the concentration for a half-maximal effect (EC50) in experiment [1] and in experiment [2] were 1370 nM and 1320 nM, respectively.
In the same order, the values of `Cc1cc(-c2cn(C)c(-c3nc(C(N)=O)cc4c3cnn4C)n2)n(CCCC#N)n1` [AIF15, 4-{4-[1-(3-cyanopropyl)-3-methyl-1H-pyrazol-5-yl]-1-methyl-1H-imidazol-2-yl}-1-methyl-1H-pyrazolo[4,3-c]pyridine-6-carboxamide] are 46.6 nM, 1350 nM and 1830 nM.
As for `Cc1cc(-c2cn(C)c(-c3nc(C(N)=O)cc4c3cnn4C)n2)n(C)n1` [AIH02, 4-[4-(1,3-dimethyl-1H-pyrazol-5-yl)-1-methyl-1H-imidazol-2-yl]-1-methyl-1H-pyrazolo[4,3-c]pyridine-6-carboxamide], the Ki on R232-STING was 22.7 nM. Also, the concentration for a half-maximal effect (EC50) in experiment [1] came out at 4300 nM; in experiment [2] it was 2560 nM.
In the same order, the values of `CCCn1nccc1-c1cn(C)c(-c2nc(C(N)=O)cc3c2cnn3C)n1` [AIH03, 1-methyl-4-[1-methyl-4-(1-propyl-1H-pyrazol-5-yl)-1H-imidazol-2-yl]-1H-pyrazolo[4,3-c]pyridine-6-carboxamide] are 148 nM, 6580 nM and 6260 nM.
For `Cn1cc(-c2ccnn2C)nc1-c1nc(C(N)=O)cc2c1cnn2C` [AIH04, 1-methyl-4-[1-methyl-4-(1-methyl-1H-pyrazol-5-yl)-1H-imidazol-2-yl]-1H-pyrazolo[4,3-c]pyridine-6-carboxamide], the inhibition constant (Ki) at R232-STING is 151 nM. Also, the EC50 in experiment [1] and in experiment [2] was > 10000 nM in each case.
For `CCn1nccc1-c1cn(C)c(-c2nc(C(N)=O)cc3c2cnn3C)n1` [AIH05, 4-[4-(1-ethyl-1H-pyrazol-5-yl)-1-methyl-1H-imidazol-2-yl]-1-methyl-1H-pyrazolo[4,3-c]pyridine-6-carboxamide], on R232-STING, the Ki is 93.3 nM. In addition, the EC50 in experiment [1] and in experiment [2] was > 10000 nM in each case.
Regarding `COCCCn1nc(C)cc1-c1cn(C)c(-c2nc(C(N)=O)cc3c2cnn3C(F)F)n1` [AIN02, 1-(difluoromethyl)-4-{4-[1-(3-methoxypropyl)-3-methyl-1H-pyrazol-5-yl]-1-methyl-1H-imidazol-2-yl}-1H-pyrazolo[4,3-c]pyridine-6-carboxamide], at R232-STING, the Ki was 20.9 nM. For the same compound, the EC50 was found to be 990 nM in experiment [1] and 1200 nM in experiment [2].
